“And” between values parts separate entries of the source, which are not always exact repeats. Equal entries are not always repeated. Toxic doses and inconclusive results are not listed. Rule for the calls: active = survival T/C of 150% or more; inactive = T/C below 125% in these data.
Tested on: CD2F1 mice, L1210 leukemia ip, survival T/C
Test: NCI In Vivo Anticancer Drug Screen. Data for tumor model L1210 Leukemia (intraperitoneal) in CD2F1 (CDF1) mice
Conditions: higher = longer survival
Procedure, shortened: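 Each value reflects a quotient of treated over vehicle control outcomes in mice with a transplanted tumor.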

[1] = endpoint: mean survival time, dose: 6.25 mg/kg/injection, schedule: Q01DX009 (ip), vehicle: saline with Tween-80
[2] = endpoint: mean survival time, dose: 12.5 mg/kg/injection, schedule: Q01DX009 (ip), vehicle: saline with Tween-80
[3] = endpoint: mean survival time, dose: 25.0 mg/kg/injection, schedule: Q01DX009 (ip), vehicle: saline with Tween-80
[4] = endpoint: mean survival time, dose: 100.0 mg/kg/injection, schedule: Q01DX001 (ip), vehicle: saline with Tween-80
[5] = endpoint: mean survival time, dose: 200.0 mg/kg/injection, schedule: Q01DX001 (ip), vehicle: saline with Tween-80
[6] = endpoint: mean survival time, dose: 400.0 mg/kg/injection, schedule: Q01DX001 (ip), vehicle: saline with Tween-80
[7] = endpoint: mean survival time, dose: 100.0 mg/kg/injection, schedule: Q04DX003 (ip), vehicle: saline with Tween-80
[8] = endpoint: mean survival time, dose: 200.0 mg/kg/injection, schedule: Q04DX003 (ip), vehicle: saline with Tween-80
[9] = endpoint: mean survival time, dose: 400.0 mg/kg/injection, schedule: Q04DX003 (ip), vehicle: saline with Tween-80
[10] = endpoint: mean survival time, dose: 50.0 mg/kg/injection, schedule: Q01DX009 (ip), vehicle: saline with Tween-80
[11] = endpoint: mean survival time, dose: 100.0 mg/kg/injection, schedule: Q01DX009 (ip), vehicle: saline with Tween-80
[12] = endpoint: mean survival time, dose: 100.0 mg/kg/injection, schedule: Q01DX001 (ip), vehicle: saline
[13] = endpoint: mean survival time, dose: 100.0 mg/kg/injection, schedule: Q04DX003 (ip), vehicle: saline
[14] = endpoint: mean survival time, dose: 200.0 mg/kg/injection, schedule: Q01DX001 (ip), vehicle: saline
[15] = endpoint: mean survival time, dose: 200.0 mg/kg/injection, schedule: Q04DX003 (ip), vehicle: saline
[16] = endpoint: mean survival time, dose: 400.0 mg/kg/injection, schedule: Q01DX001 (ip), vehicle: saline

Measured: T/C

CCOC(=O)c1cnc(NN)nc1Nc1cc(Cl)cc(Cl)c1
inactive: [1] 94 % of control | [2] 86 % of control | endpoint: mean survival time, dose: 12.5 mg/kg/injection, schedule: Q04DX003 (ip), vehicle: saline with Tween-80 89 % of control | [3] 95 % of control | endpoint: mean survival time, dose: 25.0 mg/kg/injection, schedule: Q04DX003 (ip), vehicle: saline with Tween-80 89 % of control

O=C1c2ccccc2-c2cc(Br)c(NC(Cl)Cl)cc21
inactive: [4] 104 % of control | [5] 106 % of control | [6] 103 % of control

COc1ccccc1NC(=O)Oc1ccc(Cl)cc1C
inactive: endpoint: mean survival time, dose: 100.0 mg/kg/injection, schedule: Q04DX002 (ip), vehicle: saline with Tween-80 103 % of control | endpoint: mean survival time, dose: 200.0 mg/kg/injection, schedule: Q04DX002 (ip), vehicle: saline with Tween-80 100 % of control | endpoint: mean survival time, dose: 400.0 mg/kg/injection, schedule: Q04DX002 (ip), vehicle: saline with Tween-80 95 % of control

Cc1nc([N+](=O)[O-])c(Br)n1C
inactive: [7] 103 % of control | [8] 108 % of control | [9] 94 % of control

CSc1ccc(OC(=O)Nc2ccc(C)c([N+](=O)[O-])c2)cc1C
inactive: [7] 92 % of control | [8] 92 % of control | [9] 96 % of control

N#CSc1nc2ccccc2s1
inactive: [3] 96 % of control | [10] 94 % of control | [11] 97 % of control

O=C(C1CCCCC1)C1CCC2(CCCCC2)CC1
inactive: endpoint: mean survival time, dose: 12.5 mg/kg/injection, schedule: Q01DX009 (ip), vehicle: other 92 % of control | endpoint: mean survival time, dose: 25.0 mg/kg/injection, schedule: Q01DX009 (ip), vehicle: other 87 % of control | endpoint: mean survival time, dose: 50.0 mg/kg/injection, schedule: Q01DX009 (ip), vehicle: other 93 % of control | endpoint: mean survival time, dose: 100.0 mg/kg/injection, schedule: Q01DX009 (ip), vehicle: other 92 % of control | endpoint: mean survival time, dose: 200.0 mg/kg/injection, schedule: Q01DX009 (ip), vehicle: other 95 % of control

CC(=O)NC1CC(n2cnc3c(=O)[nH]c(N)nc32)OC1C(C)O (stereo unspecified)
inactive: endpoint: median survival time, dose: 12.5 mg/kg/injection, schedule: Q01DX005 (ip), vehicle: distilled water + Tween-80 101 % of control | endpoint: median survival time, dose: 25.0 mg/kg/injection, schedule: Q01DX005 (ip), vehicle: distilled water + Tween-80 102 % of control | endpoint: median survival time, dose: 50.0 mg/kg/injection, schedule: Q01DX005 (ip), vehicle: distilled water + Tween-80 100 % of control | endpoint: median survival time, dose: 100.0 mg/kg/injection, schedule: Q01DX005 (ip), vehicle: distilled water + Tween-80 89 % of control

Cc1ccccc1N(CC1CO1)CC1CO1 (stereo unspecified)
inactive: endpoint: mean survival time, dose: 12.5 mg/kg/injection, schedule: Q01DX009 (ip), vehicle: saline 115 % of control and 104 % of control | endpoint: mean survival time, dose: 25.0 mg/kg/injection, schedule: Q01DX009 (ip), vehicle: saline 98 % of control and 106 % of control | endpoint: mean survival time, dose: 50.0 mg/kg/injection, schedule: Q01DX009 (ip), vehicle: saline 100 % of control and 111 % of control | endpoint: mean survival time, dose: 100.0 mg/kg/injection, schedule: Q01DX009 (ip), vehicle: saline 100 % of control and 106 % of control | endpoint: mean survival time, dose: 200.0 mg/kg/injection, schedule: Q01DX009 (ip), vehicle: saline 101 % of control and 108 % of control | endpoint: mean survival time, dose: 400.0 mg/kg/injection, schedule: Q01DX009 (ip), vehicle: saline 100 % of control and 106 % of control

COc1ccc(CNCCO)cc1OC
inactive: endpoint: median survival time, dose: 25.0 mg/kg/injection, schedule: Q04DX003 (ip), vehicle: saline 90 % of control | endpoint: median survival time, dose: 50.0 mg/kg/injection, schedule: Q04DX003 (ip), vehicle: saline 90 % of control | endpoint: median survival time, dose: 100.0 mg/kg/injection, schedule: Q04DX003 (ip), vehicle: saline 90 % of control | endpoint: median survival time, dose: 200.0 mg/kg/injection, schedule: Q04DX003 (ip), vehicle: saline 100 % of control

O=C(O)CCCCCCCC(=O)O
inactive: endpoint: median survival time, dose: 6.25 mg/kg/injection, schedule: Q01DX009 (ip), vehicle: distilled water + Tween-80 101 % of control | endpoint: median survival time, dose: 12.5 mg/kg/injection, schedule: Q01DX009 (ip), vehicle: distilled water + Tween-80 95 % of control | endpoint: median survival time, dose: 25.0 mg/kg/injection, schedule: Q01DX009 (ip), vehicle: distilled water + Tween-80 101 % of control | endpoint: median survival time, dose: 50.0 mg/kg/injection, schedule: Q01DX009 (ip), vehicle: distilled water + Tween-80 89 % of control | endpoint: median survival time, dose: 100.0 mg/kg/injection, schedule: Q01DX009 (ip), vehicle: distilled water + Tween-80 97 % of control

CC(=O)Oc1ccccc1N(C(C)=O)S(=O)(=O)c1ccc(C)cc1
inactive: endpoint: mean survival time, dose: 50.0 mg/kg/injection, schedule: Q04DX003 (ip), vehicle: saline 98 % of control | [12] 106 % of control | [13] 101 % of control | [14] 108 % of control | [15] 101 % of control | [16] 100 % of control

Nc1nc2c(ncn2-c2ccc(O)cc2)c(=O)[nH]1
inactive: [4] 96 % of control | [5] 87 % of control | [6] 91 % of control

O=Cc1ccc([N+](=O)[O-])s1
inactive: endpoint: mean survival time, dose: 3.12 mg/kg/injection, schedule: Q01DX009 (ip), vehicle: saline with Tween-80 102 % of control and 108 % of control | [1] 96 % of control and 102 % of control | [2] 97 % of control and 98 % of control | [3] 104 % of control and 105 % of control | [10] 103 % of control and 107 % of control | [11] 109 % of control

CC(=O)Nc1cccc(N=Cc2ccc(N(CCOS(C)(=O)=O)CCOS(C)(=O)=O)cc2C)c1
inactive: [1] 123 % of control | endpoint: mean survival time, dose: 8.0 mg/kg/injection, schedule: Q01DX009 (ip), vehicle: saline with Tween-80 118 % of control | [3] 124 % of control

Nc1ncnc2c1ccn2C1OC2COP(=O)(O)OC2C1O (stereo unspecified)
inactive: endpoint: mean survival time, dose: 5.0 mg/kg/injection, schedule: Q01DX001 (ip), vehicle: saline 98 % of control | endpoint: mean survival time, dose: 10.0 mg/kg/injection, schedule: Q01DX001 (ip), vehicle: saline 102 % of control | endpoint: mean survival time, dose: 20.0 mg/kg/injection, schedule: Q01DX001 (ip), vehicle: saline 114 % of control | endpoint: mean survival time, dose: 40.0 mg/kg/injection, schedule: Q01DX001 (ip), vehicle: saline 117 % of control

CCOCCc1ccncc1
inactive: [13] 101 % of control | [15] 104 % of control

COC(=O)C1c2cc3c(c(O)c2CCC1(C)O)C(=O)c1c(O)cc2c(c1C3=O)OC1OC2(C)C(O)C(N(C)C)C1O (stereo unspecified)
inactive: [12] 103 % of control | [14] 104 % of control | [16] 104 % of control

CC12COC(=O)C1(C)C1CCC2O1 (stereo unspecified)
inactive: endpoint: mean survival time, dose: 1.0 mg/kg/injection, schedule: Q04DX002 (ip), vehicle: saline 92 % of control | endpoint: mean survival time, dose: 2.0 mg/kg/injection, schedule: Q04DX002 (ip), vehicle: saline 88 % of control | endpoint: mean survival time, dose: 4.0 mg/kg/injection, schedule: Q04DX002 (ip), vehicle: saline 92 % of control | endpoint: mean survival time, dose: 5.0 mg/kg/injection, schedule: Q01DX002 (ip), vehicle: saline with Tween-80 100 % of control | endpoint: mean survival time, dose: 10.0 mg/kg/injection, schedule: Q01DX002 (ip), vehicle: saline with Tween-80 108 % of control

O=C(O)CCC1C2C=CC(C2)C1C(=O)O (stereo unspecified)
inactive: [7] 96 % of control | [8] 96 % of control | [9] 98 % of control

CC(C)(CN=Cc1ccccc1[O-])N=Cc1ccccc1[O-].[O]=[V]
inactive: [2] 89 % of control | [3] 96 % of control | [10] 91 % of control | [7] 100 % of control | [8] 88 % of control

O=P1(C(Cl)Cl)OCCCO1
inactive: [12] 103 % of control | [14] 100 % of control | [16] 100 % of control

Cc1ccc2c(c1)C(=O)N(CC[P+](c1ccccc1)(c1ccccc1)c1ccccc1)C2=O
inactive: endpoint: mean survival time, dose: 0.39 mg/kg/injection, schedule: Q01DX009 (ip), vehicle: Klucel (hydroxypropylcellulose) (HPC) 105 % of control | endpoint: mean survival time, dose: 0.78 mg/kg/injection, schedule: Q01DX009 (ip), vehicle: Klucel (hydroxypropylcellulose) (HPC) 100 % of control | endpoint: mean survival time, dose: 1.56 mg/kg/injection, schedule: Q01DX009 (ip), vehicle: Klucel (hydroxypropylcellulose) (HPC) 112 % of control | endpoint: mean survival time, dose: 3.12 mg/kg/injection, schedule: Q01DX009 (ip), vehicle: Klucel (hydroxypropylcellulose) (HPC) 103 % of control | endpoint: mean survival time, dose: 6.25 mg/kg/injection, schedule: Q01DX009 (ip), vehicle: Klucel (hydroxypropylcellulose) (HPC) 105 % of control | endpoint: mean survival time, dose: 12.5 mg/kg/injection, schedule: Q01DX009 (ip), vehicle: Klucel (hydroxypropylcellulose) (HPC) 101 % of control | endpoint: mean survival time, dose: 25.0 mg/kg/injection, schedule: Q01DX009 (ip), vehicle: Klucel (hydroxypropylcellulose) (HPC) 105 % of control

CCCCCCCCCCCCNC(=O)C[N+](C)(C)Cc1ccc2c(c1)CCCC2
inactive: endpoint: mean survival time, dose: 5.0 mg/kg/injection, schedule: Q04DX003 (ip), vehicle: saline with Tween-80 95 % of control | endpoint: mean survival time, dose: 10.0 mg/kg/injection, schedule: Q04DX003 (ip), vehicle: saline with Tween-80 105 % of control

— PubChem BioAssay AID256 (DTP/NCI, 2004)
